Results reported in patent US20120309728A1, “NEW STEROID INHIBITORS OF PGP FOR USE FOR INHIBITING MULTIDRUG RESISTANCE” (priority 2009, published 2012).
Where two headings read alike, the source gives them in different places.

Columns and labels:
K562/R7 cells [1] = test: Cytotoxicity assay using MTT reagent, with doxorubicin plus steroid modulator; assay type: cell-based, human; settings: for Surviving cells R7 cells (% untreated cells): doxorubicin 10^−6M + steroid modulator 10^−6M, 72 h; for activity compared with cyclosporine A (in words): comment on Table 2 bis, R7 cells
Experimental: Doxorubicin at 10^−6 M was then added to each well. After incubation for 72 h, 20 μL of MTT reagent (5 mg/mL in PBS buffer) were added to each well and the plate was further incubated for 4 h at 37° C., allowing viable cells to change the yellow MTT into dark-blue formazan crystals. Supernatants were carefully discarded and 100 μL of isopropanol containing 10% HCL 1M were added to dissolve the formazan crystals. Absorbance in each well was determined at 570 nm using a microplate reader (MultisKan EX, Thermo Electron). […] At least three different experiments were performed. Results were expressed as the percentage of surviving cells in each well compared to untreated cells.

R7 cells = test: Intracellular accumulation of daunorubicin measured by flow cytometry; assay type: cell-based, human; settings: daunorubicin 10 μM, compound 10 μM, 1 h at 37° C.
Experimental: The accumulation of daunorubicin in the presence of steroid modulators according to the invention, i.e. compounds having formula (I), was measured by flow cytometry using a reported procedure (G. Comte et al, J. Med. Chem., 44: 763-768, 2001). K562 or R7 cells ([…]) were incubated for 1 h at 37° C. with 1 mL RPMI 1640 medium containing daunorubicin at 10 μM, in the presence or absence of compounds of the invention (10 μM). The cells were then washed twice with ice-cold PBS and kept on ice until analysis by flow cytometry on a FACS-II (Becton-Dickinson Corp., Mountain View, Calif.). Assays were performed in duplicate, in at least three separate experiments.

resistant R7 cells = test: Reversion of chemoresistance to doxorubicin by steroid modulators (modulation of IC50 for doxorubicin); assay type: cell-based, human; settings: in vitro, cyclosporine A in the same conditions
Experimental: FIGS. 3 and 4 represent the effects of compounds of the invention (steroid modulators) on chemosensitization of resistant R7 cells to doxorubicin (DOXO), evaluated by [^3H]thymidine incorporation. Resistant R7 cells were incubated for 24 hours with increasing concentrations of doxorubicinin the absence (∘) or in the presence of said steroid modulators. As a control, the sensitive K562 cells were incubated with the same concentrations of doxorubicin ([…]).
Sensitive parental K562 cells were also treated with the same increasing concentrations of DOXO (from 10^−8 to 10^−4 M) in the absence of steroids, as a control.

K562/R7 cells [2] = test: Determination of IC50 for cytotoxics ([^3H]thymidine incorporation)
Experimental: (§1) After treatment, the number of surviving cells was evaluated by the incorporation of [^3H]thymidine as described above.

H295R cells = test: cells
Experimental: as §1

Molecule	Surviving cells R7 cells (% untreated cells) (K562/R7 cells [1])	Daunorubicin accumulation (R7 cells)	also measured
CC(=O)C1CCC2C3C[C@@H](OC(=O)c4ccccc4)[C@@H]4CC(=O)CCC4(C)C3[C@H](OC3CCCCO3)CC12C (mixture of isomers) [Compound 217, 6β-Benzoyloxy-11α-O-[2′(R and S)]tetrahydropyranyloxy(5β)pregnan-3,20-dione]	5.5 ± 0.4 % untreated cells	–	–
CC(=O)C1CCC2C3C[C@@H](OC(=O)c4ccccc4)[C@@H]4CC(=O)CCC4(C)C3[C@H](OC3CCCCO3)CC12C (mixture of isomers) [Compound 218, 6β-Benzoyloxy-11α-O-[2′(R and S)]tetrahydropyranyloxy(5β)pregnan-3,20-dione]	6.2 ± 1.1 % untreated cells	–	–
COC(=O)CC[C@@H](C)[C@H]1CC[C@H]2[C@@H]3[C@H](OC(=O)c4ccccc4)CC4CC(=O)CC[C@]4(C)[C@H]3C[C@H](O[C@@H]3CCCCO3)[C@]12C (single isomer, unassigned) [Compound 60]	2.2 ± 0.3 % untreated cells	79.8 ± 6.1 % of the accumulation measured in the presence of cyclosporine A	–
CC(=O)[C@@]1(OC2CCCCO2)CCC2C3CC[C@@H]4CC(=O)CC[C@]4(C)C3[C@H](OC3CCCCO3)C[C@@]21C (stereo partly drawn) [Compound 51, 11α,17α-Bis-O-[2′(S),2′(R)]tetrahydropyranyloxy(5β)pregnane-3,20-dione]	–	68.02 ± 15.6 % of the accumulation measured in the presence of cyclosporine A	potency relative to cyclosporine A in decreasing IC50 for doxorubicin (resistant R7 cells): 10 fold
COC(=O)CC[C@@H](C)[C@H]1CC[C@H]2[C@@H]3[C@H](OC(=O)c4ccccc4)CC4CC(=O)CC[C@]4(C)[C@H]3C[C@H](O[C@H]3CCCCO3)[C@]12C (stereo partly drawn) [Compound 59, Methyl 3-oxo-7α-benzoyloxy-12α-O-[2′(S)]tetrahydropyranyloxycholanate]	1.8 ± 0.1 % untreated cells	85.8 ± 2.6 % of the accumulation measured in the presence of cyclosporine A	–
COC(=O)CC[C@@H](C)[C@H]1CC[C@H]2[C@@H]3[C@H](O[C@H]4CCCCO4)CC4CC(=O)CC[C@]4(C)[C@H]3C[C@H](OC(=O)c3ccccc3)[C@]12C (stereo partly drawn) [Compound 63, methyl 3-oxo-12α-benzoyloxy-7α-O-[2′(S)]tetrahydro-pyranyloxycholanate]	0.7 ± 0.06 % untreated cells	104.7 ± 7.0 % of the accumulation measured in the presence of cyclosporine A	activity compared with cyclosporine A (in words) (K562/R7 cells [1]): activity higher than that of the reference compound cyclosporine A
COC(=O)CC[C@@H](C)[C@H]1CC[C@H]2[C@@H]3[C@H](O[C@@H]4CCCCO4)CC4CC(=O)CC[C@]4(C)[C@H]3C[C@H](OC(=O)c3ccccc3)[C@]12C (stereo partly drawn) [Compound 64, methyl 3-oxo-12α-benzoyloxy-7α-O-[2′(R)]tetra-hydropyranyloxycholanate]	0.8 ± 0.06 % untreated cells	10.0 ± 1.5 % of the accumulation measured in the presence of cyclosporine A	activity compared with cyclosporine A (in words) (K562/R7 cells [1]): activity higher than that of the reference compound cyclosporine A
COCCC[C@@H](C)[C@H]1CC[C@H]2[C@@H]3[C@H](OC(=O)c4ccccc4)CC4CC(=O)CC[C@]4(C)[C@H]3C[C@H](OC(=O)c3ccccc3)[C@]12C (stereo partly drawn) [Compound 71, 3-oxo-7α,12α-dibenzoyloxy-24-methoxycholane]	–	50.50 ± 7.5 % of the accumulation measured in the presence of cyclosporine A	–
COCCC[C@@H](C)[C@H]1CC[C@H]2[C@@H]3[C@H](O[C@H]4CCCCO4)CC4CC(=O)CC[C@]4(C)[C@H]3C[C@H](OC(=O)c3ccccc3)[C@]12C (stereo partly drawn) [Compound 73, 3-oxo-12α-benzoyloxy-7α-O-[2′(S)]tetrahydro-pyranyloxy-24-methoxycholane]	–	63.5 ± 5.5 % of the accumulation measured in the presence of cyclosporine A	–
COCCC[C@@H](C)[C@H]1CC[C@H]2[C@@H]3[C@H](O[C@@H]4CCCCO4)CC4CC(=O)CC[C@]4(C)[C@H]3C[C@H](OC(=O)c3ccccc3)[C@]12C (stereo partly drawn) [Compound 74, 3-oxo-12α-benzoyloxy-7α-O-[2′(R)]tetrahydropyranyloxy-24-methoxycholane]	–	68.0 ± 15.0 % of the accumulation measured in the presence of cyclosporine A	–
CC(=O)[C@H]1CC[C@H]2[C@H]3[C@H]([C@H](O)C[C@]12C)[C@@]1(C)CCC(=O)C[C@H]1C[C@H]3OC1CCCCO1 (stereo partly drawn) [Compound 204, 7α-O-[2′(R+S)]Tetrahydropyranyloxy-11α-hydroxy(5β)pregnane-3,20-dione]	2.8 ± 0.7 % untreated cells	87.4 ± 3.5 % of the accumulation measured in the presence of cyclosporine A	–
COC(=O)CC[C@@H](C)C1CCC2C3C[C@H](OC4CCCCO4)[C@@H]4CC(=O)CCC4(C)C3CCC21C (stereo partly drawn) [Compound 210, Methyl 3-oxo-6α-O-[2′(R+S)]tetrahydropyranyloxycholanate]	4.1 ± 1.1 % untreated cells	66.7 ± 1.8 % of the accumulation measured in the presence of cyclosporine A	–
COc1cc2c(c(OC)c1OC)-c1ccc(OC)c(=O)cc1[C@@H](NC(C)=O)CC2 [colchicine]	–	–	resistance of the cells to the cytotoxic drug (in words) (K562/R7 cells [2]; R7 cells, 24 h treatment): resistant
COc1cccc2c1C(=O)c1c(O)c3c(c(O)c1C2=O)C[C@@](O)(C(=O)CO)C[C@@H]3O[C@H]1C[C@H](N)[C@H](O)[C@H](C)O1 [doxorubicin]	–	–	IC50 (H295R cells; Homo sapiens, NCI-H295R, 24 h, read-out: IC50 of cytotoxic drug (concentration inhibiting cell growth by 50%)): 20.6 µM; IC50 (K562/R7 cells [2]; Homo sapiens, K562/R7, 24 h, read-out: IC50 of cytotoxic drug (concentration inhibiting cell growth by 50%)): 63.6 µM
O=C1c2c(O)ccc(O)c2C(=O)c2c(NCCNCCO)ccc(NCCNCCO)c21 [mitoxantrone]	–	–	resistance of the cells to the cytotoxic drug (in words) (H295R cells): resistant; resistance of the cells to the cytotoxic drug (in words) (K562/R7 cells [2]): resistant
CC(=O)[C@H]1CC[C@H]2[C@@H]3CCC4=CC(=O)CC[C@]4(C)[C@H]3CC[C@]12C [progesterone, reference compound]	–	36.27 ± 4.9 % of the accumulation measured in the presence of cyclosporine A	–
CC[C@]1(O)C[C@@H]2CN(CCc3c([nH]c4ccccc34)[C@@](C(=O)OC)(c3cc4c(cc3OC)N(C)[C@H]3[C@@](O)(C(=O)OC)[C@H](OC(C)=O)[C@]5(CC)C=CCN6CC[C@]43[C@@H]65)C2)C1 [vinblastine]	–	–	resistance of the cells to the cytotoxic drug (in words) (K562/R7 cells [2]): resistant
CCC1=C[C@@H]2CN(C1)Cc1c([nH]c3ccccc13)[C@@](C(=O)OC)(c1cc3c(cc1OC)N(C)[C@H]1[C@@](O)(C(=O)OC)[C@H](OC(C)=O)[C@]4(CC)C=CCN5CC[C@]31[C@@H]54)C2 [vinorelbine]	–	–	resistance of the cells to the cytotoxic drug (in words) (H295R cells): resistant
Cyclosporine A [reference compound]	1.6 ± 0.5 % untreated cells	–	–
